According to patent US20100159496A1, “EVALUATION METHOD FOR PHOTOSYNTHESIS SAMPLE, EVALUATION SYSTEM FOR PHOTOSYNTHESIS SAMPLE, AND EVALUATION PROGRAM FOR PHOTOSYNTHESIS SAMPLE” (HAMAMATSU PHOTONICS K.K., priority 2006, published 2010):

System: Spirulina platensis
Assay: Delayed luminescence of S. platensis exposed to simazine, fitted by Formula (1)
Format: cell-based
Set-up: Fitting formula value c3 / Fitting formula value a1 / Fitting formula value b1 / Fitting formula value c1 / Fitting formula value a2 / Fitting formula value b2 / Fitting formula value c2 / Fitting formula value a3 / Fitting formula value b3: unit not given here
Conditions: for luminescence amount of delayed luminescence, exposed vs not exposed: 15 minutes after exposure (FIG. 10); for Fitting formula value a1 / Fitting formula value a2 / Fitting formula value a3 / Fitting formula value b1 / Fitting formula value b2 / Fitting formula value b3 / Fitting formula value c1 / Fitting formula value c2 / Fitting formula value c3: 15 minutes after exposure
Method: In the present example, the measurement of delayed luminescence was carried out as follows. 2.5 mL of an S. platensis cell suspension, adjusted to have an absorbance at 660 nm of 0.05 in a general, 10×10 mm spectrometric cell, was exposed to simazine of any of various concentrations and left to stand for 15 minutes under a white fluorescent lamp of a light amount of 50 μmol·m−2·s−1. Thereafter, inside the measuring device 10, a red light (660 nm) of approximately 300 μmol·m−2·s−1 was illuminated for 10 seconds from the light source 18 as the excitation light for making delayed luminescence be emitted and then the delayed luminescence emitted after extinguishing of the excitation light was recorded for 50 seconds at 0.1 second intervals.
In the present example, the above-described Formula (1) was used for fitting. As examples for description of the fitting results, the measurement result for the “Not exposed” case is shown in FIG. 11A and a graph of the results of fitting to the measurement data are shown in FIG. 11B. In FIG. 11B, f1(t), f2(t), and f3(t) are respectively the first function, the second function, and the third function in Formula (1). From FIG. 11, it can be understood that the delayed luminescence measurement data can be fitted by a plurality of hill-shaped functions.
By the fitting, the function coefficients, ai, bi, and ci (i=1, 2, 3) are determined.

[1] = simazine exposure concentration 5 μg/L
[2] = simazine exposure concentration 25 μg/L
[3] = simazine exposure concentration 50 μg/L
[4] = simazine exposure concentration 100 μg/L

CCNc1nc(Cl)nc(NCC)n1 [Simazine, simazine]
variation of evaluation value c3 with simazine exposure concentration (S. platensis (FIG. 12)): decreases in accordance with the simazine exposure concentration | luminescence amount of delayed luminescence, exposed vs not exposed (early time period (near 0 seconds) of time after excitation): increases | luminescence amount of delayed luminescence, exposed vs not exposed (later time period (5 seconds onward) after excitation): decreases | Fitting formula value a1 [1]: 0.2 | Fitting formula value a2 [1]: 0.01 | Fitting formula value a3 [1]: 0.006 | Fitting formula value b1 [1]: −0.5 | Fitting formula value b2 [1]: −0.5 | Fitting formula value b3 [1]: 22 | Fitting formula value c1 [1]: 4.5 | Fitting formula value c2 [1]: 3.5 | Fitting formula value c3 [1]: 2.2 | Fitting formula value a1 [2]: 0.2 | Fitting formula value a2 [2]: 0.018 | Fitting formula value a3 [2]: 0.005 | Fitting formula value b1 [2]: −0.5 | Fitting formula value b2 [2]: −0.5 | Fitting formula value b3 [2]: 22 | Fitting formula value c1 [2]: 4.8 | Fitting formula value c2 [2]: 3.8 | Fitting formula value c3 [2]: 1.6 | Fitting formula value a1 [3]: 0.3 | Fitting formula value a2 [3]: 0.02 | Fitting formula value a3 [3]: 0.01 | Fitting formula value b1 [3]: −0.5 | Fitting formula value b2 [3]: −0.5 | Fitting formula value b3 [3]: 21 | Fitting formula value c1 [3]: 5 | Fitting formula value c2 [3]: 3.8 | Fitting formula value c3 [3]: 1.2 | Fitting formula value a1 [4]: 0.4 | Fitting formula value a2 [4]: 0.024 | Fitting formula value a3 [4]: 0.02 | Fitting formula value b1 [4]: −0.5 | Fitting formula value b2 [4]: −0.5 | Fitting formula value b3 [4]: 20 | Fitting formula value c1 [4]: 5.5 | Fitting formula value c2 [4]: 3.8 | Fitting formula value c3 [4]: 0.7
